For test [1], the system named is Puccinia recondita tritici = Puccinia triticina (PUCCRT). Put plainly: Fungicidal activity vs. wheat leaf rust. In kind it is in vivo, Puccinia recondita tritici on wheat (variety Yuma). Particulars: % disease control @ 50 ppm, wheat seedlings sprayed, inoculated the following day, severity evaluated 7-9 days later, read-out: Puccinia Rating. The text has this: D. Evaluation of Fungicidal Activity Vs. Leaf Rust (Causal Agent Puccinia recondita tritici=Puccinia triticina; Bayer code PUCCRT). […] Each pot contained 3-8 seedlings. These plants were sprayed until wet with the formulated test compounds. The compounds were formulated at 50 ppm in 10 vol. % acetone plus 90 vol. % Triton X water (deionized water 99.99 wt %+0.01 wt % Triton X100), giving a “formulated test compound.” Formulated test compounds were applied to plants using a turn table sprayer fitted with two opposing air atomization nozzles which delivered approximately 1500 L/ha of spray volume. On the following day, the leaves were inoculated with an aqueous spore suspension of Puccinia recondita tritici and the plants were kept in high humidity overnight to permit spores to germinate and infect the leaf. The plants were then transferred to a greenhouse until disease developed on untreated control plants. Disease severity was evaluated 7-9 days later, depending on the speed of disease development. In each case of Table 3, the Puccinia rating scale is as follows: […]

The subject of test [2] is Septoria tritici (ATCC 26517). The test is described as follows: Minimum Inhibitory Concentration (MIC) (Septoria tritici), CLSI-based microdilution. The format is cell-based. Particulars: Zymoseptoria tritici, ATCC26517, 168 h, MIC class; 50% reduction in growth of S. tritici; 7 days at 22 °C; read-out: Septoria Rating. Here is the method: C. Minimum Inhibitory Concentration (MIC) (Septoria tritici) Compounds of the present disclosure were assessed for their ability to inhibit the growth of a common strain of the fungal plant pathogen Septoria tritici (ATCC 26517) using a procedure based on a Clinical and Laboratory Standards Institute (CLSI) microdilution assay protocol for filamentous fungi. Stock solutions of the test compounds and standards were prepared in DMSO at 6400 μg/mL. Each stock solution was used to prepare a 2-fold dilution series ranging from 16 to 0.016 μg/mL (total of 11 compound concentrations) in RPMI-1640 (Roswell Park Memorial Institute) medium containing 3-(N-morpholino)propanesulfonic acid (MOPS) buffer and 2% DMSO. A 100 μL aliquot of the dilutions was added to columns 1 (16 μg/mL compound) through 11 (0.016 μg/mL compound) of a 96-well microtiter plate. This format was replicated in a second row of the microtiter plate. Thus, each microtiter plate could include 11 concentrations of four test or control compounds replicated twice. A 100 μL aliquot of RPMI-1640/MOPS/2% DMSO medium was added to column 12 (no compound control) of the microtiter plate. A fresh culture of S. tritici was used to prepare a solution of approximately 5×10^4 colony-forming units per milliliter (cfu/mL) in RPMI/MOPS medium without DMSO. A 100 μL aliquot of this solution was added to all 96 wells in the microtiter plate. […]
A general note: Dilution methods test growth across graded concentrations, often in twofold steps.

A value given as a limit tells only on which side of the number the result lay.

Consider `OC(Cn1cnnn1)(c1ccc(F)cc1F)C(F)(F)c1ccc(-c2ccc(Cl)nc2)cn1` (stereo not shown) [Compound 30, 1-(6′-Chloro-[3,3′-bipyridin]-6-yl)-2-(2,4-difluorophenyl)-1,1-difluoro-3-(1H-tetrazol-1-yl)propan-2-ol], for which the pest or weed control at 50 ppm in test [1] fell in the range of 80 to 100%. Also, the MIC in test [2] was no more than 0.5 µg/mL.
Regarding `OC(Cn1cnnn1)(c1ccc(F)cc1F)C(F)(F)c1ccc(Cc2ccc(C(F)(F)F)cc2)cn1` (stereo not shown) [Compound 73, 2-(2,4-Difluorophenyl)-1,1-difluoro-3-(1H-tetrazol-1-yl)-1-(5-(4-(trifluoromethyl)benzyl)pyridin-2-yl)propan-2-ol], in test [1], the pest or weed control at 50 ppm fell in the range of 80 to 100%.
With `OC(Cn1cnnn1)(c1ccc(F)cc1F)C(F)(F)c1ccc(Cc2ccccc2)cn1` (stereo not shown) [Compound 75, 1-(5-Benzylpyridin-2-yl)-2-(2,4-difluorophenyl)-1,1-difluoro-3-(1H-tetrazol-1-yl)propan-2-ol], the pest or weed control at 50 ppm in test [1] was 80 to 100%.
As for `OC(Cn1cnnn1)(c1ccc(F)cc1F)C(F)(F)c1ccc(Cc2ccc(OC(F)(F)F)cc2)cn1` (stereo not shown) [Compound 76, 2-(2,4-Difluorophenyl)-1,1-difluoro-3-(1H-tetrazol-1-yl)-1-(5-(4-(trifluoromethoxy)benzyl)pyridin-2-yl)propan-2-ol], in test [1], the pest or weed control at 50 ppm was in the range of 80 to 100%.
As for `OC(Cn1cnnn1)(c1ccc(F)cc1F)C(F)(F)c1ccc(Cc2ccc(Cl)cc2)cn1` (stereo not shown) [Compound 77, 1-(5-(4-Chlorobenzyl)pyridin-2-yl)-2-(2,4-difluorophenyl)-1,1-difluoro-3-(1H-tetrazol-1-yl)propan-2-ol], in test [1], the pest or weed control at 50 ppm is 80 to 100%.
For the compound `N#Cc1ccc(OCc2ccc(C(F)(F)C(O)(Cn3cnnn3)c3ccc(F)cc3F)nc2)cc1` (stereo not shown) [Compound 79, 4-((6-(2-(2,4-Difluorophenyl)-1,1-difluoro-2-hydroxy-3-(1H-tetrazol-1-yl)propyl)pyridin-3-yl)methoxy)benzonitrile], the pest or weed control at 50 ppm in test [1] lay within 80 to 100%.
Consider `OC(Cc1cnco1)(c1ccc(F)cc1F)C(F)(F)c1ccc(Br)cn1` (stereo not shown) [Compound 83, 1-(5-Bromopyridin-2-yl)-2-(2,4-difluorophenyl)-1,1-difluoro-3-(oxazol-5-yl)propan-2-ol], for which the pest or weed control at 50 ppm in test [1] was in the range of 80 to 100%.
`N#Cc1ccc(OCc2ccc(C(F)(F)C(O)(Cn3cnnn3)c3ccc(F)cc3F)nc2)c(F)c1` (stereo not shown) [Compound 88, 4-((6-(2-(2,4-difluorophenyl)-1,1-difluoro-2-hydroxy-3-(1H-tetrazol-1-yl)propyl)pyridin-3-yl)methoxy)-3-fluorobenzonitrile]: the pest or weed control at 50 ppm in test [1] was in the range of 80 to 100%.
For the compound `N#Cc1cccc(OCc2ccc(C(F)(F)C(O)(Cn3cnnn3)c3ccc(F)cc3F)nc2)c1F` (stereo not shown) [Compound 89, 3-((6-(2-(2,4-difluorophenyl)-1,1-difluoro-2-hydroxy-3-(1H-tetrazol-1-yl)propyl)pyridin-3-yl)methoxy)-2-fluorobenzonitrile], the pest or weed control at 50 ppm in test [1] lay within 80 to 100%.
For the compound `N#Cc1ccc(SCc2ccc(C(F)(F)C(O)(Cn3cnnn3)c3ccc(F)cc3F)nc2)c(F)c1` (stereo not shown) [Compound 90, 4-(((6-(2-(2,4-difluorophenyl)-1,1-difluoro-2-hydroxy-3-(1H-tetrazol-1-yl)propyl)pyridin-3-yl)methyl)thio)-3-fluorobenzonitrile], the pest or weed control at 50 ppm in test [1] fell in the range of 40 to 59%.
For `OC(Cn1cnnn1)(c1ccc(F)cc1F)C(F)(F)c1ccc(COC(F)F)cn1` (stereo not shown) [Compound 92, 1-(5-((difluoromethoxy)methyl)pyridin-2-yl)-2-(2,4-difluorophenyl)-1,1-difluoro-3-(1H-tetrazol-1-yl)propan-2-ol], the pest or weed control at 50 ppm in test [1] was 80 to 100%.
On the same count and under the same terms, the result for `OC(Cn1cnnn1)(c1ccc(F)cc1F)C(F)(F)c1ccc(-c2ccc(Cl)cn2)cn1` (stereo not shown) [Compound 93, 1-(5-chloro-[2,3′-bipyridin]-6′-yl)-2-(2,4-difluorophenyl)-1,1-difluoro-3-(1H-tetrazol-1-yl)propan-2-ol] reads 80 to 100%.
Consider `OC(Cn1cnnn1)(c1ccc(F)cc1F)C(F)(F)c1ccc(-c2ccc(C(F)(F)F)cn2)cn1` (stereo not shown) [Compound 94, 2-(2,4-difluorophenyl)-1,1-difluoro-3-(1H-tetrazol-1-yl)-1-(5-(trifluoromethyl)-[2,3′-bipyridin]-6′-yl)propan-2-ol], for which the pest or weed control at 50 ppm in test [1] fell in the range of 80 to 100%.
Regarding `N#Cc1ccc(-c2ccc(C(F)(F)C(O)(Cn3cnnn3)c3ccc(F)cc3F)nc2)nc1` (stereo not shown) [Compound 95, 6′-(2-(2,4-difluorophenyl)-1,1-difluoro-2-hydroxy-3-(1H-tetrazol-1-yl)propyl)-[2,3′-bipyridin]-5-carbonitrile], the pest or weed control at 50 ppm in test [1] was 80 to 100%.
On the same count and under the same terms, the result for `OC(Cn1cnnn1)(c1ccc(F)cc1F)C(F)(F)c1ccc(-c2ccncc2)cn1` (stereo not shown) [Compound 96, 1-([3,4′-bipyridin]-6-yl)-2-(2,4-difluorophenyl)-1,1-difluoro-3-(1H-tetrazol-1-yl)propan-2-ol] reads 60 to 79%; that for `N#Cc1ccc(OCc2ccc(C(F)(F)C(O)(Cn3cnnn3)c3ccc(F)cc3F)nc2)nc1` (stereo not shown) [Compound 98, 6-((6-(2-(2,4-difluorophenyl)-1,1-difluoro-2-hydroxy-3-(1H-tetrazol-1-yl)propyl)pyridin-3-yl)methoxy)nicotinonitrile], 80 to 100%.
On the same count and under the same terms, then `OC(Cn1cnnn1)(c1ccc(F)cc1F)C(F)(F)c1ccc(COc2ccc(C(F)(F)F)cn2)cn1` (stereo not shown) [Compound 99, 2-(2,4-difluorophenyl)-1,1-difluoro-3-(1H-tetrazol-1-yl)-1-(5-(((5-(trifluoromethyl)pyridin-2-yl)oxy)methyl)pyridin-2-yl)propan-2-ol], with 80 to 100%; and `OC(Cn1cnnn1)(c1ccc(F)cc1F)C(F)(F)c1ccc(COc2ncc(C(F)(F)F)cc2Cl)cn1` (stereo not shown) [Compound 100, 1-(5-(((3-chloro-5-(trifluoromethyl)pyridin-2-yl)oxy)methyl)pyridin-2-yl)-2-(2,4-difluorophenyl)-1,1-difluoro-3-(1H-tetrazol-1-yl)propan-2-ol], with 80 to 100%.
Consider `OC(Cn1cnnn1)(c1ccc(F)cc1F)C(F)(F)c1ccc(C(F)(F)c2ccc(F)cc2)cn1` (stereo not shown) [Compound 101, 1-(5-(difluoro(4-fluorophenyl)methyl)pyridin-2-yl)-2-(2,4-difluorophenyl)-1,1-difluoro-3-(1H-tetrazol-1-yl)propan-2-ol], for which, in test [1], the pest or weed control at 50 ppm was 80 to 100%.
Consider `OC(Cn1cnnn1)(c1ccc(F)cc1F)C(F)(F)c1ccc(C(F)(F)c2ccc(C(F)(F)F)cc2)cn1` (stereo not shown) [Compound 102, 1-(5-(difluoro(4-(trifluoromethyl)phenyl)methyl)pyridin-2-yl)-2-(2,4-difluorophenyl)-1,1-difluoro-3-(1H-tetrazol-1-yl)propan-2-ol], for which the pest or weed control at 50 ppm in test [1] fell in the range of 80 to 100%.
Take `N#Cc1ccc(C(F)(F)c2ccc(C(F)(F)C(O)(Cn3cnnn3)c3ccc(F)cc3F)nc2)cc1` (stereo not shown) [Compound 103, 4-((6-(2-(2,4-difluorophenyl)-1,1-difluoro-2-hydroxy-3-(1H-tetrazol-1-yl)propyl)pyridin-3-yl)difluoromethyl)benzonitrile]: the pest or weed control at 50 ppm in test [1] lay in the range of 80 to 100%.

(Values after patent US9556143B2, “Metalloenzyme inhibitor compounds” (Viamet Pharmaceuticals, Inc., priority 2011, dated 2017).)
